Results from ChEMBL document CHEMBL1201862, “PubChem BioAssay data set” (2004).
The source made the active and inactive calls.

How the values were obtained:
[1] = target: T1, Calpain-2 catalytic subunit (Sus scrofa, UniProt P43367); test: m-calpain protease blockers, concentration series – biochemical, fluorogenic peptide substrate, dose response (AID 1420); assay type: functional
T1 sequence (P43367 whole entry): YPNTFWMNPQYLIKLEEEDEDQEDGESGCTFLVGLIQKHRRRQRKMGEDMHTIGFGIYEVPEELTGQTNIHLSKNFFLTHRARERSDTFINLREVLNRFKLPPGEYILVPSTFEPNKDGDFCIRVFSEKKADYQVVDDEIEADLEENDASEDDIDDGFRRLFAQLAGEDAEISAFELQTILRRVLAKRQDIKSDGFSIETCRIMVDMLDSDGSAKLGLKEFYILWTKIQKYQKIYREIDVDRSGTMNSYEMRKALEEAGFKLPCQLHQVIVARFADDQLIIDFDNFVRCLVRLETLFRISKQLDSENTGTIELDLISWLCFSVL

[2] = Trypanosoma cruzi growth suppression in host cells – NIH3T3 host cells, beta-gal luminescence, confirmation (AID 2044); assay type: functional, cell-based;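 note: intracellular parasites grown in NIH/3T3 mouse fibroblasts as host cells; luminescent beta-galactosidase reporter signal from transgenic T. cruzi replicating inside host cells; inhibitors lower the luminescence signal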
[3] = NIH3T3 cell viability loss – ATP luminescence, mouse fibroblasts, counter-screen, dose response (AID 2010); assay type: functional, cell-based;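 note: cells exposed to compound for about 90 hours before reading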
[4] = target: T2, Protein skinhead-1 (Caenorhabditis elegans, UniProt P34707); assay type: functional
T2 sequence (P34707 whole entry): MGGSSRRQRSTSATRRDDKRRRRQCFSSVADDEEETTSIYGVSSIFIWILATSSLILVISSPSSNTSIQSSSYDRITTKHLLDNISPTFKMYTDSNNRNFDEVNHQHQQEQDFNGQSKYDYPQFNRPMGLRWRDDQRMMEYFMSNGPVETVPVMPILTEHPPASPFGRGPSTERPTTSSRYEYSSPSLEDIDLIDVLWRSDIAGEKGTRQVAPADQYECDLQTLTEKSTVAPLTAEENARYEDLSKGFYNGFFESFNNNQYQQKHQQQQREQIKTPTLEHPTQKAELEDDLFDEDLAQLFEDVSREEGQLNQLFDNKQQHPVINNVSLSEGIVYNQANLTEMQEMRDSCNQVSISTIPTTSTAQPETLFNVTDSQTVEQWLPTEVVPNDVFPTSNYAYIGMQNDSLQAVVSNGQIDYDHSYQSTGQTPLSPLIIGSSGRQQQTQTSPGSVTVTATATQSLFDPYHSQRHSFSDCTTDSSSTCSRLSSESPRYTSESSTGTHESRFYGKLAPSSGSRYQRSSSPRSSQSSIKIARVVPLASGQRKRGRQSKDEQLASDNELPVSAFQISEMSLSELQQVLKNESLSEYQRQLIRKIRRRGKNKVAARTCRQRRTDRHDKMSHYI

[5] = target: T3, Protein RecA (Mycobacterium tuberculosis, UniProt P9WHJ3); test: Fluorescence Cell-Free Homogeneous Dose Retest to Identify Inhibitors of RecA-Intein Splicing Activity. [Related pubchem assays (depositor defined):AID2097, AID2223, AID489010, AID492950]; assay type: functional
T3 sequence (P9WHJ3 whole entry): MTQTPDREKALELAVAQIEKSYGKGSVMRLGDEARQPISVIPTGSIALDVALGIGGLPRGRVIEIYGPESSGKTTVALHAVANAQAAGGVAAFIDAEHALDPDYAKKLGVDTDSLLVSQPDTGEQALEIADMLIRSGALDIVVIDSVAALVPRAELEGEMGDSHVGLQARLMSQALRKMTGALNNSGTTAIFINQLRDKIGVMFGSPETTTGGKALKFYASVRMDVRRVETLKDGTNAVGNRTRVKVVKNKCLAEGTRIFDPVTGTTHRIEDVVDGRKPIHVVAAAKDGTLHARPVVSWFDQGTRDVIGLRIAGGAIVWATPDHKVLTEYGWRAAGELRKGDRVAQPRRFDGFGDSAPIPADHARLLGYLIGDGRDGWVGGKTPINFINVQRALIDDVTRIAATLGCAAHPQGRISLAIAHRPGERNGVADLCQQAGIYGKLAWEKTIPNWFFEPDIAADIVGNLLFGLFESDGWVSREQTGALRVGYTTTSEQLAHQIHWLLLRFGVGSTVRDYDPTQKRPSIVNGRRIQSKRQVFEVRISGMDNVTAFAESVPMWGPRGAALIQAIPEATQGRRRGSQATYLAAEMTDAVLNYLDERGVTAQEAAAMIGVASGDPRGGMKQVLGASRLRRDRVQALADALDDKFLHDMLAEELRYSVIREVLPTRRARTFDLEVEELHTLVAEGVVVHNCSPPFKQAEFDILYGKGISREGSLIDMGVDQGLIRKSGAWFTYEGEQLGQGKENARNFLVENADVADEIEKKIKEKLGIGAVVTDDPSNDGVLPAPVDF

[6] = target: T4, Leucine aminopeptidase (Plasmodium falciparum 3D7, UniProt Q8IL11); test: P. falciparum M17LAP inhibitors, primary screen, biochemical, fluorogenic H-Leu-NHMec substrate, 1536-well (AID 1619); assay type: functional
T4 sequence (Q8IL11 whole entry): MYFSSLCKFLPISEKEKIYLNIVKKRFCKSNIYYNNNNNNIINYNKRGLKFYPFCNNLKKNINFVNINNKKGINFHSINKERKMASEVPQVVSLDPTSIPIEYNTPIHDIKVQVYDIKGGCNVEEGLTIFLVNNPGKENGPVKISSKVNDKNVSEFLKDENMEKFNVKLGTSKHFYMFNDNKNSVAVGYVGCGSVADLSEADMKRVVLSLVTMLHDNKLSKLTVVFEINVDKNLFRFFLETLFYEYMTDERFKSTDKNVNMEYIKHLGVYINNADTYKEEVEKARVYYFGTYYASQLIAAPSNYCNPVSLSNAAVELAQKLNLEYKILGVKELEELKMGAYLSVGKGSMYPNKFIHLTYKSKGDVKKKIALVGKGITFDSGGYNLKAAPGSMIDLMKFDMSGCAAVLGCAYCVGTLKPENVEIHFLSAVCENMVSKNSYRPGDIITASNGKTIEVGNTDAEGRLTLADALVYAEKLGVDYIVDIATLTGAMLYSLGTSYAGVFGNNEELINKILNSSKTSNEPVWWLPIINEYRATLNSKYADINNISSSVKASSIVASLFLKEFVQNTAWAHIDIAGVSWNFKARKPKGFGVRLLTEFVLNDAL

[7] = target: T5, Replicative DNA helicase DnaB (Mycobacterium tuberculosis, UniProt P9WMR3); test: DnaB intein splicing inhibitors, dose response, biochemical, cell-free fluorescence (AID 449749); assay type: functional
T5 sequence (P9WMR3 whole entry): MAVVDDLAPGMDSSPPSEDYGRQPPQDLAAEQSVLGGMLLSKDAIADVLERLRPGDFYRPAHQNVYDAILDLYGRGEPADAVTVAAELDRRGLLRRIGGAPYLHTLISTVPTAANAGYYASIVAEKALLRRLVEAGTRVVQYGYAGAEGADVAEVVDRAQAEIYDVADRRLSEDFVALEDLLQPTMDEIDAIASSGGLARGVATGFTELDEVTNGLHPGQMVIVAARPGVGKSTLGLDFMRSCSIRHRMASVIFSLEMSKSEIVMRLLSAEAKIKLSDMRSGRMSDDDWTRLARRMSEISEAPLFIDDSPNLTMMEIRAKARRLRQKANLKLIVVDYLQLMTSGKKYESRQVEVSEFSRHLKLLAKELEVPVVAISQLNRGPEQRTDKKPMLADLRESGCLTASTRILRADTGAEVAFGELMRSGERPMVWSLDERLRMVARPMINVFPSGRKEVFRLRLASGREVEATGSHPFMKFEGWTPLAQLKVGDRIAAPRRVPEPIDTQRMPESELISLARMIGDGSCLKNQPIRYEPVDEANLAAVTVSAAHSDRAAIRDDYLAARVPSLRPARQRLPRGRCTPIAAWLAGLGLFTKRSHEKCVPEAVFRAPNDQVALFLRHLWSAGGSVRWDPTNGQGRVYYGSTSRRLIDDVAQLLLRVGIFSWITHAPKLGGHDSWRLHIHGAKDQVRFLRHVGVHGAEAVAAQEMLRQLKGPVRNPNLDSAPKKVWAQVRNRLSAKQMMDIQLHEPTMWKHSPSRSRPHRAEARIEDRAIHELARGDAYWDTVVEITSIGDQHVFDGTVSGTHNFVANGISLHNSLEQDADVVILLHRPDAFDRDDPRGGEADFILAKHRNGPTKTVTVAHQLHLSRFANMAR

[8] = P. falciparum Dd2 growth inhibitors, dose response, SYBR Green, cherry-picked samples (AID 1159567); assay type: functional, cell-based
[9] = blockers of HIV-1 ZM109 envelope-driven cell-cell fusion – HeLa effector, CEM target cells, luciferase, cherry-pick, dose response (AID 652058); assay type: functional, cell-based;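 note: luciferase signal from HIV-1 Env mediated cell-cell fusion of effector and target cells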
[10] = HIV-1 AD8 envelope cell-cell fusion blockers – cherry-pick, dose response (AID 652062); assay type: functional, cell-based;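 note: luciferase signal from cell-cell fusion driven by HIV-1 clade B AD8 Env; potency is for inhibitors of fusion seen as a drop in luminescence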
[11] = blockers of HIV-1 envelope-mediated cell-cell fusion – cherry-pick, dose response (AID 652057); assay type: functional, cell-based
[12] = Luminescence Cell-Based Dose Retest to Confirm Inhibitors of Cancer Stem Cells. [Related pubchem assays (depositor defined):AID2717, AID2721]; assay type: functional; conditions: Homo sapiens
[13] = system: BJ; test: cells; assay type: functional, cell-based; conditions: Homo sapiens
[14] = DRD fibroblast viability loss – cell-based, non-viral oncogenic, luminescence, dose response (AID 1934); assay type: functional; conditions: Homo sapiens
[15] = system: BJ; test: BJ-TERT-LT-ST fibroblast viability loss – cell-based, RAS-independent, luminescence, dose response (AID 1935); assay type: functional; conditions: Homo sapiens;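 note: BJ fibroblasts immortalized with TERT plus LT and ST oncogenes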
[16] = system: BJ; test: BJ-TERT fibroblast viability loss – cell-based, RAS-independent, luminescence, dose response (AID 1933); assay type: functional; conditions: Homo sapiens
[17] = microbe, parasite or virus in culture; assay type: functional; conditions: Mycobacterium tuberculosis

## CCN=C(S)N(CCc1c(C)[nH]c2ccc(Cl)cc12)Cc1ccco1
[1]
  IC50: 9.05 µM (not active)
[2]
  EC50: 2.81 µM (active)
[3]
  EC50: > 60 µM (not active)

## CN(C(=O)c1ccco1)c1nc(-c2ccccc2)cs1
[4]
  IC50: 100 µM (inactive)

## N#CC1=C(N)Oc2[nH]nc(-c3ccc(F)cc3)c2C1c1cccnc1 (centres undefined)
[5]
  EC50: 1.63 µM (active)
[6]
  IC50: 61.2 µM (active)
[7]
  AC50: 7.8 µM (active)

## Oc1ccc(O)c(Cc2nc3ccccc3s2)c1
[5]
  EC50: > 380 µM (inactive)
[7]
  AC50: 33.1 µM (active)

## CCC(=O)N1C[C@H](C)[C@H](OC)CN(C)C(=O)c2cc(NC(=O)Nc3cccc(F)c3)ccc2OC[C@@H]1C
[8]
  AC50: 9.89 µM (active)

## O=C(CSc1nnnn1C1CCCCC1)Nc1cccc(NC(=O)c2ccco2)c1
[4]
  IC50: > 100 µM (inactive)

## COc1ccccc1NC(=O)N[C@H]1C=C[C@@H](CC(=O)N[C@H](C)c2ccccc2)O[C@H]1CO
[9]
  AC50: 3.38 µM (active)
[10]
  AC50: 11 µM (active)
[11]
  AC50: 4.72 µM (active)

## Cc1cccc(N2CCN(C(=O)CN3C(=O)C4CC=CCC4C3=O)CC2)c1C (centres undefined)
[1]
  IC50: > 50 µM (not active)

## C/C(=N\NC(=S)NC1CCCCC1)c1ccc(OC(F)F)cc1OC(F)F
[1]
  IC50: 3.12 µM (not active)

## O=C(/C=C/Nc1ccc(F)c(F)c1)c1cccs1
[4]
  IC50: 18.2 µM (active)

## O=C(Nc1ccc(Cl)c(Cl)c1)Nc1ccccc1NS(=O)(=O)c1cccs1
[12]
  AC50: 7.6 µM (active)
[5]
  EC50: 29.1 µM (active)
[7]
  AC50: 4.19 µM (active)

## CN(Cc1ccc(Cl)s1)C(=O)CCl
[13]
  EC50: > 150 µM (inconclusive)
[14]
  EC50: 27.6 µM (active)
[15]
  EC50: > 150 µM (inconclusive)
[16]
  EC50: 5.73 µM (active)
[5]
  EC50: 8.93 µM (active)
[7]
  AC50: 50.5 µM (active)
[17]
  CC50: 11.7 µM (active)

## Cc1ccccc1-n1c(SCC(=O)O)nc2sc3c(c2c1=O)CCCC3
[4]
  IC50: > 100 µM (inactive)

## Cc1ccc(Nc2nc(-c3cccs3)cs2)nc1
[4]
  IC50: 54.6 µM (inactive)

## COc1cccc(S(=O)(=O)N(C)C[C@@H]2Oc3ncc(C#Cc4ccc(C(F)(F)F)cc4)cc3C(=O)N([C@H](C)CO)C[C@@H]2C)c1
[8]
  AC50: 4.11 µM (active)

## C[C@H]1CN([C@@H](C)CO)C(=O)c2ccccc2-c2ccccc2CO[C@@H]1CN(C)C(=O)CCC(F)(F)F
[9]
  AC50: 1.48 µM (active)
[10]
  AC50: 2.55 µM (active)
[11]
  AC50: 1.1 µM (active)

## O=C(C[C@@H]1CC[C@@H]2[C@H](COC[C@@H](O)CN2C(=O)c2ccccc2F)O1)NCc1ccc(-c2ccccc2)cc1
[8]
  AC50: 6.33 µM (active)

## CCSc1ncc(/C=N/Nc2ccccc2)n1C
[4]
  IC50: > 100 µM (inactive)

## CCCC(=O)Nc1ccccc1NC(=O)CCC
[1]
  IC50: > 50 µM (not active)

## CN(CC(=O)Nc1nc2ccccc2s1)S(=O)(=O)c1ccc(Cl)cc1
[4]
  IC50: > 100 µM (inactive)

## CC(C)CCN(C(=O)Nc1ccccc1)C(C)c1cccs1 (centres undefined)
[1]
  IC50: 20.3 µM (not active)

## O=C(C[C@H]1C[C@H]2c3cc(NC(=O)Nc4ccccc4)ccc3O[C@H]2[C@@H](CO)O1)NC1CCCC1
[8]
  AC50: 6.1 µM (active)
